# Results published in publication PMC11582173, “Synthesis, cytotoxicity, anti-inflammatory, anti-metastatic and anti-oxidant activities of novel chalcones incorporating 2-phenoxy-N-arylacetamide and thiophene moieties: induction of apoptosis in MCF7 and HEP2 cells” (Naunyn-Schmiedeberg's Archives of Pharmacology, 2024).
# Several values for one entry are separate records, joined by “and”; a condition that tells them apart may be missing. Equal entries are not always repeated.
# What was measured:
# BAX = assay: ELISA, BAX concentration; assay type: cell-based, human
# Method: (§1) The concentrations of matrix metalloproteinase-2 (MMP2), matrix metalloproteinase-9 (MMP9), Bcl2, BAX, P53, Malondialdehyde (MDA), Glutathione (GSH), caspase 8, caspase 9 and IL-6 were measured quantitatively in 5c treated MCF7 and HEP2 cells using ELISA (Enzyme-Linked Immunosorbent Assay) (Table 4). Gelatinases are a collective word for MMP-2 and MMP-9, where MMP-2 is gelatinase-A and MMP-9 is gelatinase-B. Solid tumor invasion, metastasis, and angiogenesis have long been linked to gelatinases (Das et al. [2021]). […] Bcl2 is a crucial protein that targets apoptosis inhibition. It is regarded as a predictive biomarker or therapeutic target in the diagnosis of cancer due to its broad expression in a variety of cancers (Porter et al. [2009]). […] The pro-apoptotic protein BAX permeabilizes the mitochondrial outer membrane by changing from a cytosolic monomer to a hazardous oligomer triggering the apoptosis process (Fulda and Debatin [2006]). […] P53 transcription factor performs an essential tumor suppressor role by coordinating a wide range of physiological responses, including DNA repair, cell cycle arrest, cellular senescence, cell death, cell differentiation, and metabolism (Liebl and Hofmann [2021]). It was activated in MCF7 and HEP2-treated cells with values (4.28 and 3.109 ng/mL), respectively, compared to their controls (3.44 and 2.06 ng/mL). […]
# MMP2 = assay: ELISA, MMP2 concentration; assay type: cell-based, human
# Method: as §1
compound,measurement,setting,value
"COc1ccc(NC(=O)COc2ccc(C=CC(=O)c3cccs3)cc2)cc1 [Compound 5c, N-(4-Methoxyphenyl)-2-(4-(3-oxo-3-(thiophen-2-yl)prop-1-en-1-yl)phenoxy)acetamide]",BAX concentration,"BAX; 5c treated HEP2 cells, untreated 1261.8±7.38",1342.8 pg/mL and 1342.8 ± 12.7 pg/mL
same,BAX concentration,"BAX; 5c treated MCF7 cells, untreated 946.30±12.7",1099.36 pg/mL and 1099.36 ± 12.8 pg/mL
same,MMP2 concentration,"MMP2; 5c treated HEP2 cells, untreated 461.58±45.11",142.5 pg/mL and 142.5 ± 15.03 pg/mL
same,MMP2 concentration,"MMP2; 5c treated MCF7 cells, untreated 466.90±22.55",185.125 pg/mL and 185.125 ± 30.07 pg/mL
